# Data from patent US20250049830A1, “PHARMACEUTICAL COMPOSITION FOR PREVENTING OR TREATING CANCER, COMPRISING SGLT-2 INHIBITOR AND GOSSYPOL” (HAIM BIO., LTD., priority 2019, published 2025).
# Entries after “also recorded” stand apart in the source; their conditions may differ.
# Experiments:
# Assay type in all cases: cell-based, human
# U87 tumor spheroids = assay: Tumor spheroid size/diameter of U87 cell line after drug administration; details: for size of the tumor spheroid cells (cell photographs): 14 days, gossypol 5 μM, phenformin 10 μM; for size of the cells (cell photographs): SGLT-2 inhibitor alone or in combination with gossypol and phenformin, FIG. 9
# Procedure: The U87 cell line cells prepared according to the method of Example 1 were seeded into a 96-well plate at a density of 1.0×10^2 cells/well in DMEM media containing 2% Matrigel (Corning, NY, USA), and stabilized in a 5% CO2 incubator at 37° C. for 3 days to form tumor spheroids. After stabilization, the cells were cultured in a 5% CO2 incubator at 37° C. for 14 days. […] Referring to FIGS. 6b, 7b and 8b, the rate of change in diameter of the spheroid in the graph was calculated as a percentage based on the change in the average diameter after administration of each drug compared to the average diameter of tumor spheroid cells seeded in the 96-well plate.
# [1] = system: brain cancer cell line U87; assay: Cell viability (Cell Counting Kit-8) of brain cancer cell line U87 after drug treatment; details: SGLT-2 inhibitor with gossypol and phenformin, FIGS. 3b, 3c
# Procedure: The present inventors obtained the human lung cancer cell line A549, the pancreatic cancer cell line Mia Paca-2, the brain cancer cell line U87, and the colon cancer cell line SW480 from the American Type Culture Collection (ATCC). Each of the cell lines was cultured according to the ATCC guidelines in 10% FBS-containing RPMI 1640, DMEM, or Eagle's MEM medium supplemented with 1% penicillin-streptomycin (Gibco) in a 5% CO2 incubator (HERAcell 150i, Thermo Scientific, Waltham, MA, USA) at 37° C. and was used in the experiment.
# At the same time, the number of cells in each sample was measured with a cell viability assay kit (Cell Counting Kit-8), and the measured value was calculated as a percentage of the number of cells in the negative control group to compare the number of cells between the samples. All experiments were repeated several times and the measured values were averaged.
# According to the methods of Example 1 and Example 2, the brain cancer cell line U87 cells were cultured, and then each drug was administered to the cells, followed by analysis of the cell viability.
# [2] = system: lung cancer cell line A549; assay: Cell viability (Cell Counting Kit-8) of lung cancer cell line A549 after drug treatment; details: SGLT-2 inhibitor 50 μM, gossypol 5 μM, phenformin 10 μM, FIG. 1c
# Procedure: (§1) Each of the cell lines was cultured according to the ATCC guidelines in 10% FBS-containing RPMI 1640, DMEM, or Eagle's MEM medium supplemented with 1% penicillin-streptomycin (Gibco) in a 5% CO2 incubator (HERAcell 150i, Thermo Scientific, Waltham, MA, USA) at 37° C. and was used in the experiment.
# The lung cancer cell line A549 cells prepared by the method of Example 1 were seeded into a 96-well plate at a concentration of 1×10^4 cells/well and cultured overnight at 37° C. in a 5% CO2 environment. […]
# Thereafter, 100 μL of each cell culture and 10 μL of incubation buffer (CCK) were mixed together, placed in a 96-well plate, and incubated at room temperature for 1 hour, and then the absorbance was measured at a wavelength of 450 nm using a spectrophotometer (Synergy HTX Multi-Reader, BioTek, Winooski, VT, USA). At the same time, the number of cells in each sample was measured with a cell viability assay kit (Cell Counting Kit-8), and the measured value was calculated as a percentage of the number of cells in the negative control group to compare the number of cells between the samples. All experiments were repeated several times and the measured values were averaged.
# [3] = system: pancreatic cancer cell line Mia Paca-2; assay: Cell viability (Cell Counting Kit-8) of pancreatic cancer cell line Mia Paca-2 after drug treatment; details: SGLT-2 inhibitor with gossypol and/or phenformin, FIGS. 2b, 2c
# Procedure: as §1
# At the same time, the number of cells in each sample was measured with a cell viability assay kit (Cell Counting Kit-8), and the measured value was calculated as a percentage of the number of cells in the negative control group to compare the number of cells between the samples. All experiments were repeated several times and the measured values were averaged. […] The numerical values on the drawings according to all examples below are expressed as mean±standard error of the mean (SEM), and * indicates statistical significance (**P<0.01, ***P<0.001).
# According to the methods of Example 1 and Example 2, the pancreatic cancer cell line Mia Paca-2 cells were cultured, and then each drug was administered to the cells, followed by analysis of the cell viability.
# [4] = system: lung cancer line A549 cells; assay: Oxygen consumption rate (OCR) during mitochondrial respiration, Seahorse XF24, A549; details: SGLT-2 inhibitor 50 μM, gossypol 5 μM, phenformin 10 μM, alone or in combination, overnight, FIG. 10
# Procedure: In order to measure mitochondrial respiration, which is the main energy metabolic process of cells, the present inventors analyzed cellular oxygen consumption rate (OCR) by measuring intracellular oxygen concentration. The oxygen consumption rate that occurs during energy metabolism can be a measure of how actively cancer cell division occurs during the metabolic process of cancer cells. 1 mL of XF Calibrant buffer (Agilent Technologies) was added to a sensor cartridge (Agilent Technologies, Palo Alto, CA, USA) and incubated in a non-CO2 incubator overnight at 37° C. […] In addition, the XF24 microplate was placed in the Agilent seahorse XF24 (Agilent Technologies) instrument, and OCR was measured. Here, the measured values were compared with percentage values based on picomoles per minute (pM/min).
# [5] = Comparative Example 1: canagliflozin 50 μM, FIG. 6a
# [6] = Comparative Example 3: empagliflozin 75 μM, FIG. 8a
SMILES,size of the tumor spheroid cells (cell photographs) (U87 tumor spheroids; [5]),size of the cells (cell photographs) (U87 tumor spheroids),cancer therapeutic effect of co-administration compared to SGLT-2 inhibitor alone [1],synergistic effect when administered in combination with gossypol and phenformin [2],cancer therapeutic effect of co-administration compared to SGLT-2 inhibitor alone [3],size of the tumor spheroid cells (cell photographs) (U87 tumor spheroids; [6]),oxygen consumption rate [4],"size of the tumor spheroid cells (cell photographs) (U87 tumor spheroids; Comparative Example 2: dapagliflozin 75 μM, FIG. 7a)"
Cc1ccc([C@@H]2O[C@H](CO)[C@@H](O)[C@H](O)[C@H]2O)cc1Cc1ccc(-c2ccc(F)cc2)s1 [canagliflozin],decreased,decreased compared to that in the control group; also recorded: most significant reduction in the cell size,better effect,highest synergistic effect,more effective,–,–,–
OC[C@H]1O[C@@H](c2ccc(Cl)c(Cc3ccc(O[C@H]4CCOC4)cc3)c2)[C@H](O)[C@@H](O)[C@@H]1O [empagliflozin],–,decreased compared to that in the control group,–,–,–,decreased,also low,–
[H]/N=C(/N)N/C(=N/[H])NCCc1ccccc1 [phenformin],decreased,–,–,–,–,decreased,–,decreased
